Molecular target: Acetylcholinesterase (Homo sapiens, UniProt P22303)
Sequence (P22303 whole entry): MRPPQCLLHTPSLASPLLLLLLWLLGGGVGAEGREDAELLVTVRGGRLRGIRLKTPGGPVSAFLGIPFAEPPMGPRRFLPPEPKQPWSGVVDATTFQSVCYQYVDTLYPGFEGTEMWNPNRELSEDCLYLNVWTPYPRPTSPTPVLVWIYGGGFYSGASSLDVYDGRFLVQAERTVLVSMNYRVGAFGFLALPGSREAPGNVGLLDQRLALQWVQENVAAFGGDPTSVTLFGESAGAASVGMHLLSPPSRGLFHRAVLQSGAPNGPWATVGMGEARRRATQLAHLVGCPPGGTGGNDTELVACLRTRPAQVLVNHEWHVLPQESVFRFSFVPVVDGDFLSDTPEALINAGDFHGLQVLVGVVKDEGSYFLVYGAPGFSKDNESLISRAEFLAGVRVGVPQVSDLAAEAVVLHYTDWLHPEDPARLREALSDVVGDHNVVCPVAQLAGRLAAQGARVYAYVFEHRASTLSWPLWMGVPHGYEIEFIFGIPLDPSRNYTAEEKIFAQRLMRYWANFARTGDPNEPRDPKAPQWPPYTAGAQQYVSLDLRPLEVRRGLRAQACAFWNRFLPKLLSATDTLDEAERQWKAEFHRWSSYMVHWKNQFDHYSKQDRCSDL

SMILES	IC50
CN(CCOCCNC(=S)NC(=O)c1ccccc1)Cc1ccccc1	0.12 µM
CN(CCOCCNC(=S)Nc1ccc(OC(F)(F)F)cc1)Cc1ccccc1	1 µM
CN(CCOCCCNC(=S)NC(=O)c1ccccc1)Cc1ccccc1	1.1 µM
CN(CCOCCNC(=S)NC(=O)c1ccc(-c2ccccc2)cc1)Cc1ccccc1	0.23 µM
Cc1ccc(C(=O)NC(=S)NCCOCCN(C)Cc2ccccc2)cc1	0.077 µM
CCCCCCNC(=O)Oc1cccc(CN(CC)CCCOc2ccc3c(=O)c4ccccc4oc3c2)c1	0.16 µM
O=C(CCC1CCN(Cc2ccccc2)CC1)c1ccc2c(c1)OCO2	0.03 µM
c1ccc2c(NCCCCCCCCNc3c4c(nc5ccccc35)CCCC4)ccnc2c1	0.0088 µM
c1ccc2c(NCCCCCCCCCNc3c4c(nc5ccccc35)CCCC4)ccnc2c1	0.038 µM
FC(F)(F)c1cc(-c2ccccc2)nnc1NCCN1CCOCC1	740 µM
Nc1cc(-c2ccccc2)nnc1NCCN1CCOCC1	270 µM
c1ccc(-c2ccc(NCCCCCN3Cc4ccccc4CN3)nn2)cc1	10 µM
CN(CCCNc1ccc(-c2ccccc2)nn1)Cc1ccccc1	13 µM
COc1cc2c(cc1OC)C(O)C(CC1CCN(c3ccccc3)CC1)C2 (stereo unspecified)	0.3 µM
CN(CCCCCNc1ccc(-c2ccccc2)nn1)Cc1ccccc1	0.74 µM
c1ccc(CN2CCC(Nc3ccc(-c4ccccc4)nn3)CC2)cc1	65 µM
O=C1CNc2cc3onc(CCC4CCN(Cc5ccccc5)CC4)c3cc2C1	0.00048 µM
CCCCCCNC(=O)Oc1cccc(CN(C)CCCCOc2ccc3c(=O)c4ccccc4oc3c2)c1	0.1 µM
c1ccc(CN2CCC(CNc3ccc(-c4ccccc4)nn3)CC2)cc1	56 µM
CCCCCCNC(=O)Oc1cccc(CN(C)CCCCCOc2ccc3c(=O)c4ccccc4oc3c2)c1	0.1 µM
OCc1cc(-c2ccccc2)nnc1NCCN1CCOCC1	440 µM
O=C1c2ccccc2CCC1CC1CCN(c2ccccc2)CC1 (stereo unspecified)	2.1 µM
O=C1c2ccccc2CCCC1CC1CCN(c2ccccc2)CC1 (stereo unspecified)	15 µM
NCCCCCCCNc1c2c(nc3ccccc13)CCCC2	0.319 µM
NCCCCCCCCCNc1c2c(nc3ccccc13)CCCC2	0.131 µM

SMILES	IC50
CN(C)CCCCCCCNc1c2c(nc3ccccc13)CCCC2	0.052 µM
CCCCCCNC(=O)Oc1cccc(CN(CCC)CCCOc2ccc3c(=O)c4ccccc4oc3c2)c1	0.4 µM
CCCCCCNC(=O)Oc1cccc(CN(CCCOc2ccc3c(=O)c4ccccc4oc3c2)C(C)C)c1	0.17 µM
COc1cc2c(cc1OC)C(=O)C(CC1CCN(c3ccccc3)CC1)C2 (stereo unspecified)	0.0057 µM
CCCCCCNC(=O)Oc1cccc(CN(C)CCCOc2ccc3c(=O)c4cccnc4oc3c2)c1	0.042 µM
CCCCNC(=O)Oc1cccc(CN(C)CCCOc2ccc3c(=O)ccoc3c2)c1	0.25 µM
NCCCCCCCCCCNc1c2c(nc3ccccc13)CCCC2	0.147 µM
NCCCCCCCCCCCCNc1c2c(nc3ccccc13)CCCC2	0.18 µM
CN(C)CCCCCCCCNc1c2c(nc3ccccc13)CCCC2	0.047 µM
CN(C)CCCCCCCCCNc1c2c(nc3ccccc13)CCCC2	0.071 µM
c1ccc2c(NCCCCCCCCNc3ccncc3)c3c(nc2c1)CCCC3	0.0136 µM
c1ccc(-c2ccc(NCCCN3CCc4ccccc4C3)nn2)cc1	35 µM
CN(CCCCNc1ccc(-c2ccccc2)nn1)Cc1ccccc1	11 µM
CCCCCCNC(=O)Oc1cccc(CN(C)CCCOc2ccc3c(=O)cc(-c4ccccc4)oc3c2)c1	0.068 µM
CN(C)CCCCCCCCCCNc1c2c(nc3ccccc13)CCCC2	0.045 µM
CN(C)CCCCCCCCCCCCNc1c2c(nc3ccccc13)CCCC2	0.264 µM
c1ccc2c(NCCCCCCCNc3ccncc3)c3c(nc2c1)CCCC3	0.0128 µM
c1ccc2c(NCCCCCCCCCNc3ccncc3)c3c(nc2c1)CCCC3	0.083 µM
c1ccc2c(NCCCCCCCCCCNc3ccncc3)c3c(nc2c1)CCCC3	0.176 µM
c1ccc(-c2ccc(NCN3CCCCC3)nc2)cc1	13 µM
c1ccc(-c2cnc(NCN3CCCCC3)nc2)cc1	100 µM
c1ccc(NCCCCCCCCCCCCNc2c3c(nc4ccccc24)CCCC3)cc1	0.261 µM
c1ccc2c(NCCCCCCCNc3c4c(nc5ccccc35)CCCC4)ccnc2c1	0.0101 µM
c1ccc(-c2ncc(NCN3CCCCC3)nn2)cc1	57 µM
c1ccc(-c2nnc(NCN3CCCCC3)s2)cc1	54 µM

SMILES	IC50
c1ccc(-c2cnc(NCN3CCCCC3)nn2)cc1	60 µM
c1ccc(C2=NNC(NCN3CCCCC3)=NC2)cc1	47 µM
CCCCCCNC(=O)Oc1cccc(CN(C)CCCOc2ccc3ccc(=O)oc3c2)c1	0.013 µM
Nc1c2c(nc3ccccc13)-c1cc(Br)ccc1CC2	144 µM
Cc1cc(-c2ccccc2)nnc1NCCN1CCCCC1	5.4 µM
Cc1cc(-c2ccc(Cl)cc2)nnc1NCCN1CCCCC1	1.3 µM
Cc1cc(-c2ccc3c(c2)OCO3)nnc1NCCN1CCCCC1	1 µM
CN(CCOCCNC(=S)NC(=O)c1ccc2c(c1)C(=O)c1ccccc1-2)Cc1ccccc1	0.03 µM
CN(CCOCCNC(=S)NC(=O)c1ccc2c(c1)C(=O)c1ccccc1C2=O)Cc1ccccc1	0.006 µM
CN(CCOCCNC(=S)Nc1ccccn1)Cc1ccccc1	4 µM
CCCCCCNC(=O)Oc1cccc(CN(C)CCCOc2ccc3c(=O)ccoc3c2)c1	0.021 µM
CCN1CCCC1CNc1ccc(-c2ccccc2)nn1 (stereo unspecified)	62 µM
c1ccc(-c2ccc(NCCN3CCc4ccccc4C3)nn2)cc1	83 µM
O=C1c2ccccc2CC1CC1CCN(c2ccccc2)CC1 (stereo unspecified)	0.15 µM
COc1cc2c(cc1OC)CC(CC1CCN(c3ccccc3)CC1)=C2	4.4 µM
c1ccc(-c2ccc(NCCCN3CCOCC3)nn2)cc1	410 µM
CN(CCNc1ccc(-c2ccccc2)nn1)Cc1ccccc1	170 µM
CC1Cc2c(nc3ccccc3c2N)C1(C)O (stereo unspecified)	134 µM
Nc1c2c(nc3ccccc13)-c1ccccc1NCC2	69.4 µM
Nc1c2ccccc2nc2c1cnc1cc(Cl)ccc12	1000 µM
COc1ccc2c(c1)CCc1c-2nc2ccccc2c1N	47 µM
Nc1c2c(nc3ccccc13)CCCc1ccccc1-2	38.2 µM
Nc1c2c(nc3ccccc13)CCC2	0.056 µM
CCCCC1=C(C)Cc2c1nc1ccccc1c2N	25 µM
CC1=C(C)c2nc3ccccc3c(N)c2C1	3.5 µM

SMILES	IC50
CCCCC1(O)c2nc3ccccc3c(N)c2CC1C (stereo unspecified)	91 µM
COc1ccc2c(c1)CCCc1c-2nc2ccccc2c1N	68.8 µM
Nc1cccc2c1C(=O)N(CCC1CCN(Cc3ccccc3)CC1)C2=O	0.011 µM
O=c1[nH]c2cc(Cl)ccc2c(=O)n1CCC1CCN(Cc2ccccc2)CC1	0.0045 µM
O=C1c2cccnc2C(=O)N1CCC1CCN(Cc2ccccc2)CC1	0.013 µM
O=c1c2ccccc2ncn1CCC1CCN(Cc2ccccc2)CC1	1.2 µM
O=C1Cc2ccccc2CN1CCC1CCN(Cc2ccccc2)CC1	0.017 µM
O=C(c1ccccc1)c1ccc2c(c1)C(=O)N(CCC1CCN(Cc3ccccc3)CC1)C2=O	0.0024 µM
O=C1c2cccc([N+](=O)[O-])c2C(=O)N1CCC1CCN(Cc2ccccc2)CC1	0.009 µM
O=C1Cc2ccccc2C(=O)N1CCC1CCN(Cc2ccccc2)CC1	0.023 µM
O=c1c2ccccc2ccn1CCC1CCN(Cc2ccccc2)CC1	1.1 µM
O=C1Nc2ccccc2CN1CCC1CCN(Cc2ccccc2)CC1	0.013 µM
O=C1CCCCN1CCC1CCN(Cc2ccccc2)CC1	0.27 µM
O=C(Nc1cccc2c1C(=O)N(CCC1CCN(Cc3ccccc3)CC1)C2=O)c1ccccc1	0.34 µM
O=C1c2ccccc2NCN1CCC1CCN(Cc2ccccc2)CC1	0.8 µM
c1ccc(CN2CCC(CCN3CCc4ccccc4C3)CC2)cc1	1.6 µM
O=C1c2ccccc2CCN1CCC1CCN(Cc2ccccc2)CC1	1 µM
Cc1cc(-c2ccc(Cl)cc2)nnc1NCCN1CCOCC1	34 µM
c1ccc(-c2ccc(NCCN3CCOCC3)nn2)cc1	1000 µM
c1ccc(-c2ccc(NCCCCN3CCc4ccccc4C3)nn2)cc1	15 µM
c1ccc(CN2CCC(CCNc3ccc(-c4ccccc4)nn3)CC2)cc1	0.12 µM
NCCCCCCCCNc1c2c(nc3ccccc13)CCCC2	0.089 µM
c1ccc(-c2ccc(NCCN3CCCCC3)nn2)cc1	13 µM
CN(CCOCCNC(=S)NC(=O)c1ccccc1)C1CCCCC1	0.013 µM
Nc1c2c(nc3ccccc13)-c1ccccc1NCCC2	391 µM

SMILES	IC50
COc1ccc(NC(=S)NCCOCCN(C)Cc2cccc([N+](=O)[O-])c2)cc1OC	1.5 µM
CCN(CCOCCNC(=O)NCc1ccccc1)CC1CCCCC1	10 µM
Nc1c2c(nc3ccccc13)CCCCC2	0.039 µM
CC12CCC(c3c1nc1ccccc1c3N)C2(C)C (stereo unspecified)	110 µM
Nc1c2c(nc3ccccc13)-c1ccccc1CCC2	166 µM
c1ccc(-c2cc(-c3ccccc3)c(NCCN3CCOCC3)nn2)cc1	260 µM
CN(CCOCCNC(=S)Nc1cccc2ccccc12)Cc1ccccc1	10 µM
Nc1c2c(nc3ccccc13)-c1ccccc1C2	0.35 µM
c1ccc2c(NCCCCCCNc3c4c(nc5ccccc35)CCCC4)c3c(nc2c1)CCCC3	0.0014 µM
Fc1ccc2c(NCCCCCCCNc3c4c(nc5cc(F)ccc35)CCCC4)c3c(nc2c1)CCCC3	0.0006 µM
Fc1ccc2c(NCCCCCCNc3c4c(nc5cc(F)ccc35)CCCC4)c3c(nc2c1)CCCC3	0.0009 µM
c1ccc2c(NCCCCCCCNc3c4c(nc5ccccc35)CCC4)c3c(nc2c1)CCC3	0.075 µM
Nc1c2c(nc3ccccc13)-c1ccccc1CC2	37 µM
CC(C)c1cc(-c2ccccc2)nnc1NCCC1CCN(Cc2ccccc2)CC1	0.43 µM
CCc1cc(=NCCC2CCN(Cc3ccccc3)CC2)[nH]nc1-c1ccccc1	0.027 µM
Cc1cc(=NCCC2CCN(Cc3ccccc3)CC2)[nH]nc1-c1ccccc1	0.021 µM
CCCc1cc(=NCCC2CCN(Cc3ccccc3)CC2)[nH]nc1-c1ccccc1	0.061 µM
c1ccc(CN2CCC(CCN=c3[nH]nc(-c4ccccc4)c4ccccc34)CC2)cc1	0.44 µM
Cc1cc(-c2ccccc2)nnc1NCCC1CCN(Cc2ccccc2)CC1	0.32 µM
CN(CCOCCNC(=O)Nc1ccc([N+](=O)[O-])cc1)Cc1ccccc1	2.3 µM
CN(CCOCCNC(=S)NC1CCCCC1)Cc1ccccc1	1.4 µM

— ChEMBL document CHEMBL1155460, “Prediction of acetylcholinesterase inhibitors and characterization of correlative molecular descriptors by machine learning methods” (Eur J Med Chem, 2010)
